Data as given in patent US5859032A, “Pyridine derivative, anti-ulcer drug, and antibacterial drug” (priority 1996, dated 1999).

Legend:
gastric mucosa = experiment: PD: Gastric Mucosal Integrity Test; type: in vivo, rat (male CDj:SD); set-up: key: 5: Same as the control with no recognizable damage at all.; 4: Though a slight PD-decreasing tendency suggesting a slight possibility of mucosal damage is found, there is no problem.; 3: Though a weak decrease in PD and a possibility of a weak mucosal damage is recognized, there is no substantial problem.; 2: Medium degree of decrease in PD is found and a mucosal damage is recognized.; 1: Heavy degree of decrease in PD is found and a remarkable mucosal damage is recognized; settings: rat, 100 mg/kg into chamber, 60 minutes
Method: PD: Gastric Mucosal Integrity Test
In this case, since the sample compound has a necrotizing effect, it is inappropriate as an anti-ulcer medicament.
Therefore, the gastric mucosal potential difference (PD), which reflects the integrity of the gastric mucosa, is measured so as to confirm that the sample compound has no damaging effect on gastric mucosa, which is toxicity at gastric mucosal level.
Male CDj:SD rats (7 to 8-week-old) were fasted overnight, but allowed free access to water, and then, under urethane anesthesia (1.25 g/kg, i.p.), fixed to a cork board on its back. The abdomen of each rat was incised, and a small incision was made in the forestomach. Then, the inside of the stomach was washed with physiological saline heated at 37° C. From the forestomach, along the greater curvature thereof, the stomach was incised without damaging blood vessels. After the height of the cork board was adjusted on a jack, the stomach was mounted on ex vivo chamber. The area of the gastric mucosa exposed to the inside of this chamber was 2.5 cm^2. The inside of the chamber was perfused with physiological saline warmed at 37° C. by micro tube pump. By using an agar bridge containing 3M KCl, the potential difference between the chamber and the abdominal cavity was measured by a PD meter. Here, the rectal temperature was measured to control the body temperature during the experiment. […] To a control, the vehicle was administered.
The change in PD during 60 minutes after the administration of 100 mg/kg of the sample compound was collectively studied and, with reference to the positive control, classified into 5 levels as follows:
5: Same as the control with no recognizable damage at all.
3: Though a weak decrease in PD and a possibility of a weak mucosal damage is recognized, there is no substantial problem.
2: Medium degree of decrease in PD is found and a mucosal damage is recognized.
1: Heavy degree of decrease in PD is found and a remarkable mucosal damage is recognized.

[1] = tested on: stress ulcer formation (rats); experiment: WIS: Restraint and Water Immersion Stress-Induced Ulcer Inhibition Test; type: in vivo, rat (male Crj:SD or Slc:SD); settings: rat, 100 mg/kg, oral, 7 hours water immersion stress
Method: WIS: Restraint and Water Immersion Stress-Induced Ulcer Inhibition Test
The degree of inhibition of the stress ulcer formation is tested.
Male Crj:SD or Slc:SD rats (6 to 7-week-old) were fasted overnight, but allowed free access to water. Each group has 5 to 8 of these rats. […] To a control group, the vehicle was administered. 10 minutes later, the rats were placed in a stress cage and immersed to the level of xipfoid process in a water bath (21° C.) for 7 hours. At the end of the stress, the rats were sacrificed by inhalation of ether or carbon dioxide. Then, the stomach of each was removed, inflated by injecting 10 ml of 5% formalin neutral buffer solution, and immersed in 1% formalin neutral buffer solution for 30 minutes or more to be fixed. The stomach was incised along the greater curvature and then the length of each erosion in the glandular portion was determined under dissecting microscope. The sum of the length of erosions per stomach was defined as ulcer index (UI).
The effect obtained when 100 mg/kg of the sample compound had been administered was expressed as ulcer formation inhibitory rate (%) as follows:
ulcer formation inhibitory rate (%)=(1-(UI in sample group/UI in control

[2] = tested on: gastric acid secretion (pylorus-ligated, histamine-stimulated rats); experiment: VOL, TAO: Acid Secretion Inhibition Test In Vivo; set-up: species or system rat (male Crj:Donryu); settings: rat, 100 mg/kg, oral; histamine 30 mg/kg s.c.
Method: VOL, TAO: Acid Secretion Inhibition Test In Vivo
Inhibitory effect on acid secretion in vivo is confirmed.
Male Crj:Donryu rats (7-week-old) were fasted overnight but allowed free access to water. In each group, 8 to 10 of these rats were used under urethane anesthesia (1.25 g/kg). […] 30 minutes later, the abdomen of each was incised and the pylorus was ligated. 30 minutes after the ligation, 30 mg/kg of histamine dissolved in physiological saline was subcutaneously administered and, 3 hours thereafter, the rat was sacrificed with carbon dioxide. Immediately thereafter, each stomach was removed and the gastric contents were collected and each volume was determined. The total acid output was determined by titration of the gastric juice with 0.1N NaOH.
With respect to the gastric juice volume (VOL) and the total acid output (TAO), the effects obtained when 100 mg/kg of the sample compound had been administered were expressed as their respective inhibitory rates (%) as follows:
each inhibitory rate (%)=(1-(value in sample group/value in control

Row | SMILES | PD: change in gastric mucosal potential difference (5 levels) (gastric mucosa) | WIS: ulcer formation inhibitory rate [1] | TAO: total acid output inhibitory rate [2] | VOL: gastric juice volume inhibitory rate [2]
1 | CC(C)=CCC/C(C)=C/COc1ccc(C(=O)Nc2cccnc2)cc1 [Example 4, 3-(4-geranyloxybenzoylamino)pyridine] | 5 | 39% |  | 
2 | CC(C)=CCC/C(C)=C/COc1ccc(C(=O)NCC(=O)Nc2ccccn2)cc1 [Example 13, 2-[2-(4-geranyloxybenzoylamino)acetylamino]pyridine] | 5 | 33% |  | 
3 | CC(C)=CCC/C(C)=C/COc1ccc(C(=O)NCc2ccncc2)cc1 [Example 3, 4-(4-geranyloxybenzoylaminomethyl)pyridine] | 3 | 61% |  | 
4 | COc1ccc(SCCNC(=O)c2ccc(OC/C=C(\C)CCC=C(C)C)cc2)nc1 [Example 11, 2-[2-(4-geranyloxybenzoylamino)ethylthio]-5-methoxypyridine] | 4 | 61% |  | 
5 | CC(C)=CCC/C(C)=C/COc1ccc(C(=O)NCCNc2cccnc2)cc1 [Example 7, 3-[2-(4-geranyloxybenzoylamino)ethylamino]pyridine] | 3 | 81% |  | 
6 | CC(C)=CCC/C(C)=C/COc1ccc(C(=O)NCCc2ccccn2)cc1 [Example 1, 2-[2-(4-geranyloxybenzoylamino)ethyl]pyridine] | 5 | 50% | 8% | 4%
7 | CC(C)=CCC/C(C)=C/COc1ccc(C(=O)NCCc2ccncc2)cc1 [Example 2, 4-[2-(4-geranyloxybenzoylamino)ethyl]pyridine] | 3 | 77% | 25% | 17%
8 | COc1ccc(NCCNC(=O)c2ccc(OC/C=C(\C)CCC=C(C)C)cc2)nc1 [Example 8, 2-[2-(4-geranyloxybenzoylamino)ethylamino]-5-methoxypyridine] | 5 | 55% | -7% | 7%
9 | CC(C)=CCC/C(C)=C/COc1ccc(C(=O)NCCNc2cc(C)cc(C)n2)cc1 [Example 10, 2,4-dimethyl-6-[2-(4-geranyloxybenzoylamino)ethylamino]pyridine] | 3 | 55% |  | 
10 | CC(C)=CCOc1ccc(OCC=C(C)C)c(C(=O)NCCc2ccncc2)c1 [Example 6, 4-[2-(2,5-diprenyloxybenzoylamino)ethyl]pyridine] | 5 | 48% |  | 
